US9975907B2, “Pyrimidinones as PI3K inhibitors” (Incyte Corporation, priority 2009, dated 2018)

What was measured:
Type in all cases: biochemical
PI3Kγ = PI3Kγ (Homo sapiens (Human), UniProt P48736); assay: PI3K Enzyme Assay A2 ([γ-33P]ATP filter plate), PI3Kγ; settings: Assay A2, 1000 μM ATP
Procedure: Materials: Lipid kinase substrate, phosphoinositol-4,5-bisphosphate (PIP2), was purchased from Echelon Biosciences (Salt Lake City, Utah). PI3K isoforms α, β, δ and γ were purchased from Millipore (Bedford, Mass.). ATP, MgCh, DTT, EDTA, MOPS and CHAPS were purchased from Sigma-Aldrich (St. Louis, Mo.).
The kinase reaction was conducted in clear-bottom 96-well plate from Thermo Fisher Scientific in a final volume of 24 μL. Inhibitors were first diluted serially in DMSO and added to the plate wells before the addition of other reaction components. The final concentration of DMSO in the assay was 0.5%. The PI3K assays were carried out at room temperature in 20 mM MOPS, pH 6.7, 10 mM MgCl2, 5 mM DTT and CHAPS 0.03%. The reaction mixture was prepared containing 50 μM PIP2, kinase and varying concentration of inhibitors. Reactions were initiated by the addition of ATP containing 2.2 μCi [γ-^33P]ATP to a final concentration of 1000 μM. The final concentration of PI3K isoforms α, β, δ and γ in the assay were 1.3, 9.4, 2.9 and 10.8 nM respectively. Reactions were incubated for 180 min and terminated by the addition of 100 μL of 1 M potassium phosphate pH 8.0, 30 mM EDTA quench buffer. A 100 μL aliquot of the reaction solution was then transferred to 96-well Millipore MultiScreen IP 0.45 μm PVDF filter plate (The filter plate was prewetted with 200 μL 100% ethanol, distilled water, and 1 M potassium phosphate pH 8.0, respectively). The filter plate was aspirated on a Millipore Manifold under vacuum and washed with 18×200 μL wash buffer containing 1 M potassium phosphate pH 8.0 and 1 mM ATP. After drying by aspiration and blotting, the plate was air dried in an incubator at 37° C. overnight. Packard TopCount adapter (Millipore) was then attached to the plate followed with addition of 120 μL Microscint 20 scintillation cocktail (Perkin Elmer) in each well. After the plate sealing, the radioactivity of the product was determined by scintillation counting on Topcount (Perkin-Elmer). IC50 determination was performed by fitting the curve of percent control activity versus the log of the inhibitor concentration using the GraphPad Prism 3.0 software. […] See Table 1 for data related to compounds of the invention.

PI3Kδ (p110δ/p85α) = PI3Kδ (p110δ/p85α) (Homo sapiens (Human), UniProt O00329); assay: PI3Kδ Scintillation Proximity Assay (Assay A3); settings: column b, Assay A3 (SPA), 20 μM ATP
Summary of the method: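 Radiometric SPA: 33P-labelled […] bound to WGA beads after EDTA/ATP quench, counted by scintillation, fitted against log inhibitor for IC50. Reaction: 4 nM PI3Kδ (p110δ/p85α), 20 μM ATP, 20 μM PIP2, pH 6.7 MOPS buffer with MgCl2, DTT, CHAPS, 0.5% DMSO, room temperature, 210 min.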

PI3Kα = PI3Kα (Homo sapiens (Human), UniProt P42336); assay: PI3K Enzyme Assay A2 ([γ-33P]ATP filter plate), PI3Kα; settings: Assay A2, 1000 μM ATP
Procedure: Materials: Lipid kinase substrate, phosphoinositol-4,5-bisphosphate (PIP2), was purchased from Echelon Biosciences (Salt Lake City, Utah). PI3K isoforms α, β, δ and γ were purchased from Millipore (Bedford, Mass.). ATP, MgCh, DTT, EDTA, MOPS and CHAPS were purchased from Sigma-Aldrich (St. Louis, Mo.). The kinase reaction was conducted in clear-bottom 96-well plate from Thermo Fisher Scientific in a final volume of 24 μL. Inhibitors were first diluted serially in DMSO and added to the plate wells before the addition of other reaction components. The final concentration of DMSO in the assay was 0.5%. The PI3K assays were carried out at room temperature in 20 mM MOPS, pH 6.7, 10 mM MgCl2, 5 mM DTT and CHAPS 0.03%. The reaction mixture was prepared containing 50 μM PIP2, kinase and varying concentration of inhibitors. Reactions were initiated by the addition of ATP containing 2.2 μCi [γ-^33P]ATP to a final concentration of 1000 μM. […] Reactions were incubated for 180 min and terminated by the addition of 100 μL of 1 M potassium phosphate pH 8.0, 30 mM EDTA quench buffer. A 100 μL aliquot of the reaction solution was then transferred to 96-well Millipore MultiScreen IP 0.45 μm PVDF filter plate (The filter plate was prewetted with 200 μL 100% ethanol, distilled water, and 1 M potassium phosphate pH 8.0, respectively). The filter plate was aspirated on a Millipore Manifold under vacuum and washed with 18×200 μL wash buffer containing 1 M potassium phosphate pH 8.0 and 1 mM ATP. After drying by aspiration and blotting, the plate was air dried in an incubator at 37° C. overnight. Packard TopCount adapter (Millipore) was then attached to the plate followed with addition of 120 μL Microscint 20 scintillation cocktail (Perkin Elmer) in each well. After the plate sealing, the radioactivity of the product was determined by scintillation counting on Topcount (Perkin-Elmer). IC50 determination was performed by fitting the curve of percent control activity versus the log of the inhibitor concentration using the GraphPad Prism 3.0 software.

PI3Kδ (p110δ/p85α), sequence (O00329 whole entry, species assumed): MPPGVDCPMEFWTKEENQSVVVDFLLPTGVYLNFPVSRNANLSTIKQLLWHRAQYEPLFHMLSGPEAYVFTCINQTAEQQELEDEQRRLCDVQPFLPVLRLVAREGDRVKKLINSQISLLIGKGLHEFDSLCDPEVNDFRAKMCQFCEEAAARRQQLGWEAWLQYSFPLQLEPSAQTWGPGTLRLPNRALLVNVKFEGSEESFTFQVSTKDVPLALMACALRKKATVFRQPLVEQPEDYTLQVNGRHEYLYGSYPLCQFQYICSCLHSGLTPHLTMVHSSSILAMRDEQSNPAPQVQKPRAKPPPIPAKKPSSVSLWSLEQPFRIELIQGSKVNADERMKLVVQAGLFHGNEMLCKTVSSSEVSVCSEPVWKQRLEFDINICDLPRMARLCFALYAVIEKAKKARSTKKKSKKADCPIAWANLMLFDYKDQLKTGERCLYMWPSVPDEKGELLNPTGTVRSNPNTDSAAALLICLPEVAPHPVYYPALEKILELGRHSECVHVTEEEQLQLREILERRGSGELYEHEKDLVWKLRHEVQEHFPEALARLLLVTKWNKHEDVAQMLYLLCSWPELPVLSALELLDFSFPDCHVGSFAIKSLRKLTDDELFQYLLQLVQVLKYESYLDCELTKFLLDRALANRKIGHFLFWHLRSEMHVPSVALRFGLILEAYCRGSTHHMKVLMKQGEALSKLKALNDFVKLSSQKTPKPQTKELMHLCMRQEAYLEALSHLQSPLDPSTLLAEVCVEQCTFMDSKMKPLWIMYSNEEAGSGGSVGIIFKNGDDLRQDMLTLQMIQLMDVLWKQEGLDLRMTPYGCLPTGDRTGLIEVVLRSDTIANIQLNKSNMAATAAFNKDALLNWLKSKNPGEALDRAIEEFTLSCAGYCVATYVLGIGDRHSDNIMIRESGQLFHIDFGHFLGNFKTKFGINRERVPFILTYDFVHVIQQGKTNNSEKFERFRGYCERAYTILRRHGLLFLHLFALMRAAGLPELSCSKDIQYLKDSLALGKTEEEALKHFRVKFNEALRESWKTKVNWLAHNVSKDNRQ
PI3Kδ (p110δ/p85α), sequence (P27986 whole entry partner, species assumed): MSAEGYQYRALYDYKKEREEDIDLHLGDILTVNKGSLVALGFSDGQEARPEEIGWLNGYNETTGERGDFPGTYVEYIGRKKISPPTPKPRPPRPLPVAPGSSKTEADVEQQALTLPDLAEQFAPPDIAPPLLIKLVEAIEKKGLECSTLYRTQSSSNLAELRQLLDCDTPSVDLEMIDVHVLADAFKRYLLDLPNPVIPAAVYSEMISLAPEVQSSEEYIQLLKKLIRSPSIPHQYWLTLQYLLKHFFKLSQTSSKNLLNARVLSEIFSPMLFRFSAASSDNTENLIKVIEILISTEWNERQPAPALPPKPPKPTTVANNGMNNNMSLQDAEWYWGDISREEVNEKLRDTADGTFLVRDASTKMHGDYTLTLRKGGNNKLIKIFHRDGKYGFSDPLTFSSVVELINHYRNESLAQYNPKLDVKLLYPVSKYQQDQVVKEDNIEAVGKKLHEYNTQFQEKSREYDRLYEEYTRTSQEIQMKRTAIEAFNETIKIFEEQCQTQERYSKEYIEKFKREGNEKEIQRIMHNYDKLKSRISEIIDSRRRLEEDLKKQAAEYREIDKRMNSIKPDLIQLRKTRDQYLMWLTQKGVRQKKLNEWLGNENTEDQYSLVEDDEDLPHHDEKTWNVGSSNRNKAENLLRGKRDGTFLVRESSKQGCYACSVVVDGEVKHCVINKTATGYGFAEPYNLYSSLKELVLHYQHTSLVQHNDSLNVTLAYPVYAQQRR
PI3Kγ, sequence (P48736 whole entry, species assumed, canonical isoform): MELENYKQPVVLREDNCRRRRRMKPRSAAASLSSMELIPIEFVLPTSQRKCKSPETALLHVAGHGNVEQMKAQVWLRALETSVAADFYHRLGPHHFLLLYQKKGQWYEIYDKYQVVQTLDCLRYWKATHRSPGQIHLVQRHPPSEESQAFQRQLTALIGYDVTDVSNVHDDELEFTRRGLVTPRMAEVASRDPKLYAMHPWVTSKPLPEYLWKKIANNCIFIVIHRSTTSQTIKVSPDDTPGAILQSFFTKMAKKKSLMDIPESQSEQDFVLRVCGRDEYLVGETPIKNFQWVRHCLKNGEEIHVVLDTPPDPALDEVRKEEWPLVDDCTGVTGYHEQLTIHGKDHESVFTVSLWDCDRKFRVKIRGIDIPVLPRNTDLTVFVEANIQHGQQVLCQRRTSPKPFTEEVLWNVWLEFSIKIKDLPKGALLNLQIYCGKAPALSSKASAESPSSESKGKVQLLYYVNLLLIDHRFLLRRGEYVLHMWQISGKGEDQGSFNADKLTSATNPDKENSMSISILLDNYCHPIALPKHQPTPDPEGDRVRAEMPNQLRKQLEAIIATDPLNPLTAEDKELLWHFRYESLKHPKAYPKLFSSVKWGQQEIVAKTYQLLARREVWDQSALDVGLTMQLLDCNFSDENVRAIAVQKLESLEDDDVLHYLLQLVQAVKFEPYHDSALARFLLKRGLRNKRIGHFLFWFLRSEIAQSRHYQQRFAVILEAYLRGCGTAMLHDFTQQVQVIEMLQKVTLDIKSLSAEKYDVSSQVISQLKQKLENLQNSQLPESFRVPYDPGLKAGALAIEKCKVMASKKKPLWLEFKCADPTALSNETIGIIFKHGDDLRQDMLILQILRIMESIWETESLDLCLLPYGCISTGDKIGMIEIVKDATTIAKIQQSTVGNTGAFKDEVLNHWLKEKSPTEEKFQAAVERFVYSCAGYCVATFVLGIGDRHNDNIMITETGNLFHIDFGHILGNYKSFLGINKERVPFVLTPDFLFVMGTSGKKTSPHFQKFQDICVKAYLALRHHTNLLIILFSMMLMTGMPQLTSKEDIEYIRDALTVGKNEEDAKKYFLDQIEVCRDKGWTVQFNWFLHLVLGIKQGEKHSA
PI3Kα, sequence (P42336 whole entry, species assumed, canonical isoform): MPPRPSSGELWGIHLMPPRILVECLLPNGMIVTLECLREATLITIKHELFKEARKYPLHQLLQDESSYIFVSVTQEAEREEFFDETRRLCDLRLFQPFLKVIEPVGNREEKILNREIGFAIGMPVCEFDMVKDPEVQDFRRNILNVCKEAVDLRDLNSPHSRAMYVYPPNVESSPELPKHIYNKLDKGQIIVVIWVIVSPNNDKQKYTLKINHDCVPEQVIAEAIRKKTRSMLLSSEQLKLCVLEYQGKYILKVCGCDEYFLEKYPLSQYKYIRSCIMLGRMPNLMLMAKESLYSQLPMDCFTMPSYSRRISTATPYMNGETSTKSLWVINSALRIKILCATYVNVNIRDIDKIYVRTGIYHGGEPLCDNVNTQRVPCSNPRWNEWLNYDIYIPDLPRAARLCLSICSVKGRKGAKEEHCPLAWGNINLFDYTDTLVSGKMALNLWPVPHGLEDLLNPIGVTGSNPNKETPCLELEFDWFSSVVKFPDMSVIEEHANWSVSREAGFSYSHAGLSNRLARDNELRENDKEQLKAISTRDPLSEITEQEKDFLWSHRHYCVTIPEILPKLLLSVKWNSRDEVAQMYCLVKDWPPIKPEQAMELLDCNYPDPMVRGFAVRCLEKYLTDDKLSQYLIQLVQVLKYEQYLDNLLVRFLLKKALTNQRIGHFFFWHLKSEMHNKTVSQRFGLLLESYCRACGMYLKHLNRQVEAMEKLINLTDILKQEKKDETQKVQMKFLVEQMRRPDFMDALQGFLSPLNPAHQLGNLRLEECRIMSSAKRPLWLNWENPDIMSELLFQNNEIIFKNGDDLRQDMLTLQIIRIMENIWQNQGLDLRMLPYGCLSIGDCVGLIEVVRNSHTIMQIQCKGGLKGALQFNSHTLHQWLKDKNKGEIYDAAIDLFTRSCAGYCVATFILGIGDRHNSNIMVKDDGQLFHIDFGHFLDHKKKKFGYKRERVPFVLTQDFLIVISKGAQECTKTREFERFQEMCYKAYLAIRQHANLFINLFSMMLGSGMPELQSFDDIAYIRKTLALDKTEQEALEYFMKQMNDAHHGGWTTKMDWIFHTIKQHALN
PI3Kα, sequence (P27986 whole entry partner, species assumed, canonical isoform): as the sequence (P27986 whole entry partner, species assumed) above

Row | IC50 (PI3Kγ) [nM] | IC50 (PI3Kδ (p110δ/p85α)) [nM] | IC50 (PI3Kα) [nM] | Compound
1 | 100 to 500 | < 50 | > 500 | Cc1csc2nc(C(C)Nc3nc(N)nc4[nH]cnc34)c(-c3cc(F)cc(F)c3)c(=O)n12 (stereo not drawn) [Example 13, 7-{1-[(2-amino-9H-purin-6-yl)amino]ethyl}-6-(3,5-difluorophenyl)-3-methyl-5H-[1,3]thiazolo[3,2-a]pyrimidin-5-one]
2 | 100 to 500 | < 50 | > 500 | Cc1csc2nc(C(C)Nc3nc(N)nc4[nH]cnc34)c(-c3cccc(F)c3)c(=O)n12 (stereo not drawn) [Example 11, 7-{1-[(2-amino-9H-purin-6-yl)amino]ethyl}-6-(3-fluorophenyl)-3-methyl-5H-[1,3]thiazolo[3,2-a]pyrimidin-5-one]
3 | 50 to 100 | < 50 | > 500 | Cc1csc2nc(C(C)Nc3nc(N)nc4[nH]cnc34)c(-c3ccccc3)c(=O)n12 (stereo not drawn) [Example 9, 7-{1-[(2-amino-9H-purin-6-yl)amino]ethyl}-3-methyl-6-phenyl-5H-[1,3]thiazolo[3,2-a]pyrimidin-5-one]
